As usually defined, the IC50 is the midpoint of a concentration-inhibition curve.

Here are results for 2 compounds from BindingDB's records for doi:10.1016/j.bmc.2008.09.058 (Yale University, 2009).

Square brackets hold non-standard residues; d marks the D form. Peptide text beside a SMILES is read from it. * marks the point of attachment. 4Abz = Nc1ccc(C(=O)O)cc1; NHBn = c1ccc(CN*)cc1

The target of the experiment is RAC-alpha serine/threonine-protein kinase (Homo sapiens, UniProt P31749). Nature of the experiment: AKT IMAP Fluorescence Polarization Assay. The following applies: pH 7.2; 23 °C. From the text: A bead-based FP assay methodology, termed IMAP, has been developed for the serine/threonine kinase, AKT that allows for direct measurement of product formation. The assay design utilizes a fluoresceinated peptide substrate that, when phosphorylated by the kinase, binds to nanoparticles derivatized with trivalent metal cations through a metal-phospholigand interaction. The result of this bound fluoresceinated phosphorylated product is an increase in polarization signal caused by a decrease in the molecular mobility of the bound product. Reported values are an average of three independent binding curves utilizing an IMAP Akt Assay Kit (Molecular Devices). Reactions were conducted in wells with fluoresceinated peptide, ATP, and Akt1, and inhibitor in reaction buffer. The reactions were equilibrated for 1 h at room temperature then data points were collected and analyzed.
Chain of RAC-alpha serine/threonine-protein kinase (P31749 whole entry): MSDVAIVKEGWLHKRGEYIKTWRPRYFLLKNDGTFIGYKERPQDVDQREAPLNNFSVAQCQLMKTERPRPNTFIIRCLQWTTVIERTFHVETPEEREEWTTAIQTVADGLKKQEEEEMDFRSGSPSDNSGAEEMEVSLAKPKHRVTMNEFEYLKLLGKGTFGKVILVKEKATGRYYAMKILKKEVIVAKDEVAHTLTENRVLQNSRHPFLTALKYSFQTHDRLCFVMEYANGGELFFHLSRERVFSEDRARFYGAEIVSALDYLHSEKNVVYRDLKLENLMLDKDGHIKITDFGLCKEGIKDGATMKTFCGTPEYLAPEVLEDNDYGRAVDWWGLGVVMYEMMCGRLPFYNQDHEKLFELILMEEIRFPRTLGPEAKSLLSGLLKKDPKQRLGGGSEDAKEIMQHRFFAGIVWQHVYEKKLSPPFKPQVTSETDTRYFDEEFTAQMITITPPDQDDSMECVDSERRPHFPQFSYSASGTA

As to `CC(=O)NCC(=O)NC(CCCN=C(N)N)C(=O)N1CCCC1C(=O)NC(CCCN=C(N)N)C(=O)Nc1ccc(C(=O)NC(C(=O)NC(Cc2ccccc2)C(=O)NCc2ccccc2)C(C)C)cc1` (configuration not stated) [Peptidomimetic, 2] (Ac-GRPR[4Abz]VF-NHBn; configuration not given here), it took 28 µM to reach half-maximal inhibition (IC50).
The value for `CC(=O)NC(CCCN=C(N)N)C(=O)Nc1ccc(C(=O)NC(C(=O)NC(Cc2ccccc2)C(=O)NCc2ccccc2)C(C)C)cc1` (configuration not stated) [Peptidomimetic, 9] (Ac-R[4Abz]VF-NHBn; configuration not given here) was 119 µM.
